This note sets out measurements from article PMC3639963, “A New Class of Small Molecule Inhibitor of BMP Signaling” (PLoS ONE, 2013).

Broadly, the inhibition is the relative decrease from the control value, in per cent.

Assay in all cases: Nanosyn kinase profiling
Type in all cases: biochemical
Settings in all cases: read-out: Percentage inhibition; for inhibition at 0.1 µM: 0.1 µM inhibitor; for inhibition at 1 µM: 1 µM inhibitor

For one assay, the target named is T1, cRAF (Homo sapiens, UniProt P04049).
T1 construct: purchased Nanosyn (enzymatic panel); SGC in-house recombinant human kinases (DSF panel); Invitrogen (ALK1-6)
T1 sequence (P04049 whole entry): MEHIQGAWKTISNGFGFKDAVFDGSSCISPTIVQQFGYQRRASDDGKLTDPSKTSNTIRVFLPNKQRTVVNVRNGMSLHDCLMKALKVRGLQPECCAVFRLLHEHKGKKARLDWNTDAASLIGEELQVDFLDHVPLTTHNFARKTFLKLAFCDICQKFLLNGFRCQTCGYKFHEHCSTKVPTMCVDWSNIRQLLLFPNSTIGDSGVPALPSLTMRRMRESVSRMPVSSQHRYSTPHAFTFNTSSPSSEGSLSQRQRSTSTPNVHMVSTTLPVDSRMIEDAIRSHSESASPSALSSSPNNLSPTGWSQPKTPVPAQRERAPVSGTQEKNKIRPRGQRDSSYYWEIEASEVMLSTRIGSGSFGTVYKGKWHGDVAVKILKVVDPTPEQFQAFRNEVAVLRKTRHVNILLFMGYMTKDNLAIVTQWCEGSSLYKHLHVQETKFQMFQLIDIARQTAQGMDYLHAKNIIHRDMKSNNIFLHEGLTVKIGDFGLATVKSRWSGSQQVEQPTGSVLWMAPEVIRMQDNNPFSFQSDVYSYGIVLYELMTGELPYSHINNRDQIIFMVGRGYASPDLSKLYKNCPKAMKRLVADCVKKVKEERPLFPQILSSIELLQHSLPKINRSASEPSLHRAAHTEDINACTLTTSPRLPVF
In a few lines:
(§1)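 Percent inhibition of each kinase was measured with the inhibitor at 0.1 µM and at 1 µM, as part of a 200-kinase human selectivity panel.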

Another assay has as its target T2, PI3-K-α (Homo sapiens, UniProt P42336).
T2 construct: purchased Nanosyn (enzymatic panel); SGC in-house recombinant human kinases (DSF panel); Invitrogen (ALK1-6)
In a few lines: as §1

The next assay concerns the target T3, GRK7 (Homo sapiens, UniProt Q8WTQ7).
T3 construct: purchased Nanosyn (enzymatic panel); SGC in-house recombinant human kinases (DSF panel); Invitrogen (ALK1-6)
T3 sequence (Q8WTQ7 1-553): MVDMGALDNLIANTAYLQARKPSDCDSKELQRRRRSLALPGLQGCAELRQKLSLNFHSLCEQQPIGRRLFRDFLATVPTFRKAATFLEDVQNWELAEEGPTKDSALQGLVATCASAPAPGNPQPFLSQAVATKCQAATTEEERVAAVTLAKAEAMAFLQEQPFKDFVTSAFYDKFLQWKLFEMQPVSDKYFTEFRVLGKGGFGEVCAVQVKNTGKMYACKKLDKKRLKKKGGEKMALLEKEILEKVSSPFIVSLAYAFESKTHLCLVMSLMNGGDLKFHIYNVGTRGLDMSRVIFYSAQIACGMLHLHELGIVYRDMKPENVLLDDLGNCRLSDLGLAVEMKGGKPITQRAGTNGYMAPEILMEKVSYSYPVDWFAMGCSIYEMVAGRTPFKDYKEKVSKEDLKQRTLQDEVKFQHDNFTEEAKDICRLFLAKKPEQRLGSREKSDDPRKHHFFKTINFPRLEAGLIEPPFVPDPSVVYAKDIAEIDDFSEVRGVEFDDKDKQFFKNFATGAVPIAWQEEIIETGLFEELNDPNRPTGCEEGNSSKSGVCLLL
In a few lines:
as §1

The next assay addresses T4, FGFR3 (Homo sapiens, UniProt P22607).
T4 construct: purchased Nanosyn (enzymatic panel); SGC in-house recombinant human kinases (DSF panel); Invitrogen (ALK1-6)
A digest of the protocol: as §1

A further assay has as its target T5, IKK-ε (Homo sapiens, UniProt Q14164).
T5 construct: purchased Nanosyn (enzymatic panel); SGC in-house recombinant human kinases (DSF panel); Invitrogen (ALK1-6)
T5 sequence (Q14164 1-716): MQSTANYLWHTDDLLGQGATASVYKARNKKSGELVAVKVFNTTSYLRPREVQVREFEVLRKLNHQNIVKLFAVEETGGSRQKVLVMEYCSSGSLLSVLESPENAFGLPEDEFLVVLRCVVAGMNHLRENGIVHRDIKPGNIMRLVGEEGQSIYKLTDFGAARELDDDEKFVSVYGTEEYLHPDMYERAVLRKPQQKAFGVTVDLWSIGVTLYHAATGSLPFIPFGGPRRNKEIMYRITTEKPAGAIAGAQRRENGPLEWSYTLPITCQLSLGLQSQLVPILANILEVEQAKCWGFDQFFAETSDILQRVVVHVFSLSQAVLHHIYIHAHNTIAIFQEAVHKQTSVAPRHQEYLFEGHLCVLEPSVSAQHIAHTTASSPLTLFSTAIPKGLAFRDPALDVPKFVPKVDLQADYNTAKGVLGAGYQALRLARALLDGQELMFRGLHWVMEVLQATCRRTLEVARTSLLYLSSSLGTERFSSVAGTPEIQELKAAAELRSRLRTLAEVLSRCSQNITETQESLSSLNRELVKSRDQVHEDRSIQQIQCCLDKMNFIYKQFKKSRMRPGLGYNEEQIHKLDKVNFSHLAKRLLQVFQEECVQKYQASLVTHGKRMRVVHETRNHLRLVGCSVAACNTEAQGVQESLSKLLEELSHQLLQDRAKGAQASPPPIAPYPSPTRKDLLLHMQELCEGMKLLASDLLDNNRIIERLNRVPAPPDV
A digest of the protocol: as §1

In a further assay the target is T6, HIPK4 (Homo sapiens, UniProt Q8NE63).
T6 construct: purchased Nanosyn (enzymatic panel); SGC in-house recombinant human kinases (DSF panel); Invitrogen (ALK1-6)
T6 sequence (Q8NE63 1-616): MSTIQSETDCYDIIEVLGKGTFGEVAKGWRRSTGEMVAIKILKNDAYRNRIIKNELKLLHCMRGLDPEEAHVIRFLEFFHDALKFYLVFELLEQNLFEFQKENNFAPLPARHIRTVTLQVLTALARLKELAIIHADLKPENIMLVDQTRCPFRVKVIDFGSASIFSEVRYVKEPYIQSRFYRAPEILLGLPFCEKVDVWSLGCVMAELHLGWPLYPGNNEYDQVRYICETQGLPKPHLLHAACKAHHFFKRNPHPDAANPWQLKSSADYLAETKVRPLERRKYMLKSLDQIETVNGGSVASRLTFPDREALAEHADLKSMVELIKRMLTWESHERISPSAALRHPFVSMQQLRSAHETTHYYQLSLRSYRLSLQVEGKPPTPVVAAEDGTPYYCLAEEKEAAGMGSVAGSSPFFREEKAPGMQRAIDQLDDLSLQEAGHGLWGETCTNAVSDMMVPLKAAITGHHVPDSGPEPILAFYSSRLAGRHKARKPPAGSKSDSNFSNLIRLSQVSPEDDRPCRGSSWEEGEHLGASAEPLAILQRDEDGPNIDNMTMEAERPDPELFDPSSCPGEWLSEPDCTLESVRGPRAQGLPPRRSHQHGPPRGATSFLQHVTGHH
In a few lines:
as §1

Each structure is given as a SMILES string.

T4 sequence (P22607 23-806): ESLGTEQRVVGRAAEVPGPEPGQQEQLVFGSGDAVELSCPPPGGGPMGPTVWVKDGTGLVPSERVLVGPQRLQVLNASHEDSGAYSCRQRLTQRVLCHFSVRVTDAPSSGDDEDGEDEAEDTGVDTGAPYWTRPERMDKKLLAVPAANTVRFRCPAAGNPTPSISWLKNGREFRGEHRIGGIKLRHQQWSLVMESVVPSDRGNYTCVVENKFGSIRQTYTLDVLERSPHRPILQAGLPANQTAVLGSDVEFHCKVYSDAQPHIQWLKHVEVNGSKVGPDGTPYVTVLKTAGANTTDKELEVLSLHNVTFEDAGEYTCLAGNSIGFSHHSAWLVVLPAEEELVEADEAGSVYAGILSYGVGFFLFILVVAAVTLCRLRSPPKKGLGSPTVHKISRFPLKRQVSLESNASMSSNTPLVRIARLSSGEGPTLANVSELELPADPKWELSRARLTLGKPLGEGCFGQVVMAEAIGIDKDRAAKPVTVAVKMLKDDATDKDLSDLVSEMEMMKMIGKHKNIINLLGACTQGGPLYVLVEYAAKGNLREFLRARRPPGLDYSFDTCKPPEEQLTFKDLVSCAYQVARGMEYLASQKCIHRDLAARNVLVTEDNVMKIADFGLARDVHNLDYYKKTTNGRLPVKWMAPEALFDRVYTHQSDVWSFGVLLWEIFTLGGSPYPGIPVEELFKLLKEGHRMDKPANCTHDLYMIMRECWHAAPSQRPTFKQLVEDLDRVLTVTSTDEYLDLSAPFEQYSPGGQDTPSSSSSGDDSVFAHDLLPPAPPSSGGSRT
T2 sequence (P42336 whole entry): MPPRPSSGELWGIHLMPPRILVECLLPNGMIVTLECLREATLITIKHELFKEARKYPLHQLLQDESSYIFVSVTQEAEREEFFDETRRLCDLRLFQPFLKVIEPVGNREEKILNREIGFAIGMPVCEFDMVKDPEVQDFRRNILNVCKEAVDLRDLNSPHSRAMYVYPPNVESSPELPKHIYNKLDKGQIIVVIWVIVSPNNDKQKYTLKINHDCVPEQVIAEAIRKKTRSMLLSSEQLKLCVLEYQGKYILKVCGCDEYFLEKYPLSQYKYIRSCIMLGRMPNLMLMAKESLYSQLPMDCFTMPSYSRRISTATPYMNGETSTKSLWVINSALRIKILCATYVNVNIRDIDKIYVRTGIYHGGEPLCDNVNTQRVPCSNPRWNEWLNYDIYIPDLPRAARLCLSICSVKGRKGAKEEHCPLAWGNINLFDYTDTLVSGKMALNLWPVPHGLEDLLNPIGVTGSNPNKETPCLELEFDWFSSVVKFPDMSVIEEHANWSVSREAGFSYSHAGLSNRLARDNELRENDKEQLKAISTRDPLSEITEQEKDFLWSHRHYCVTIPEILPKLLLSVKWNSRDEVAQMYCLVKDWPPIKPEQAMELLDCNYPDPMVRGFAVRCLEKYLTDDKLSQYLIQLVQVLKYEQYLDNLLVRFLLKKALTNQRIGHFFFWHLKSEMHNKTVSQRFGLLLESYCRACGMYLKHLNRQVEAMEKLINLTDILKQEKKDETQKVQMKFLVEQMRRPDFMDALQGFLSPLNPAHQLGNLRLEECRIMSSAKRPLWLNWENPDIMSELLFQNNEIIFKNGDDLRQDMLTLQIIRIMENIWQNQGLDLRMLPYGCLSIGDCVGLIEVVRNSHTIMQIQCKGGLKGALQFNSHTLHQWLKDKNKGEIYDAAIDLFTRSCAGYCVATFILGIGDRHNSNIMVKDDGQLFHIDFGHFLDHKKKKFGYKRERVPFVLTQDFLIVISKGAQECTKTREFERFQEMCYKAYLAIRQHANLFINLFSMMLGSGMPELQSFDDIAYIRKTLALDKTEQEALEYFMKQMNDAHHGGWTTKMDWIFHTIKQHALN
T2 sequence (P27986 whole entry partner): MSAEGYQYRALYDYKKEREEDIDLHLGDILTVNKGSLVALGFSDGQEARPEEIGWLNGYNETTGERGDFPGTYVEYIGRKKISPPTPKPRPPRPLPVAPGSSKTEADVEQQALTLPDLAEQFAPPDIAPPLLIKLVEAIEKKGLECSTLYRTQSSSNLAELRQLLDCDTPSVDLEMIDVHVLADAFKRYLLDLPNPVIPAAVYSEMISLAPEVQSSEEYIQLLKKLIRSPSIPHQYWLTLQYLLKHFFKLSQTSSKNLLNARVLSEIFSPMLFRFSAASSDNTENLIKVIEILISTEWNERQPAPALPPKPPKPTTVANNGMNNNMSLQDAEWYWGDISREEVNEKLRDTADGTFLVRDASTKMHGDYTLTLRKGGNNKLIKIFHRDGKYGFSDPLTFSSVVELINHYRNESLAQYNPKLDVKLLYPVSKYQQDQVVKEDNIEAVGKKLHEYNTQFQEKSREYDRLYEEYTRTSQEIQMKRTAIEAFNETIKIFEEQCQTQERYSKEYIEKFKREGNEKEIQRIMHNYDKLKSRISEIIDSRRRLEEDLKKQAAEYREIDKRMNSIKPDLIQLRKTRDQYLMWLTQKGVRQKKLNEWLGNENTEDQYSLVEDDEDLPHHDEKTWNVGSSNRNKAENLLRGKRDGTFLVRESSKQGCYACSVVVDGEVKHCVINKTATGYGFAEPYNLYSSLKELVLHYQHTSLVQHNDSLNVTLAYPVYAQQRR

`c1ccc2c(-c3cnn4cc(-c5ccc(N6CCNCC6)cc5)cnc34)ccnc2c1` [LDN-193189]: the inhibition at 0.1 µM was 0.6% at cRAF; 2.1% on PI3-K-α; 1.8% at GRK7; 5% on FGFR3; 7.5% at IKK-ε; 0% on HIPK4. In addition, the inhibition at 1 µM is 0.1% at cRAF; 1.5% at PI3-K-α; 0.8% on GRK7; 16% at FGFR3; 7.4% at IKK-ε; 4.9% at HIPK4.
`COc1cc(-c2cc(-c3cccc(O)c3)cnc2N)cc(OC)c1OC` [K02288, 3-[6-amino-5-(3,4,5-trimethoxy-phenyl)-pyridin-3-yl]-phenol]: the inhibition at 0.1 µM on cRAF is -5%; at PI3-K-α, 2.6%; on GRK7, 0.2%; on FGFR3, -2%; at IKK-ε, -6%; at HIPK4, 0.8%. In addition, the inhibition at 1 µM on cRAF is -8%; on PI3-K-α it was 2%; at GRK7, -3%; on FGFR3, 0.2%; on IKK-ε, -2%; on HIPK4 it was 4.2%.
